Measurements from patent US20250382297A1, “INHIBITORS OF FGFR2 AND FGFR3 AND USES THEREOF” (Insilico Medicine IP Limited, priority 2022, published 2025).
Where two headings read alike, the source gives them in different places.

Tests used:
[1] = biological target: FGFR1 (Homo sapiens (Human), UniProt P11362); experiment: FGFR biochemical assay (LanthaScreen TR-FRET kinase assay), FGFR1
Method: (§1) Convert Ratio values to percent inhibition values (Percent inhibition=(max−sample Ratio)/(max−min)*100) where “min” means the Ratio of no enzyme control and “max” means the Ratio of DMSO control. • Data are analyzed and curve fitting is performed by XLFit Excel add-in version 5.4.0.8. The IC50 calculation equation is: Y=Bottom+(Top-Bottom)/(1+ (IC50/X)^HillSlope.

[2] = biological target: FGFR2 (Homo sapiens (Human), UniProt P21802); experiment: FGFR biochemical assay (LanthaScreen TR-FRET kinase assay), FGFR2
Method: as §1

[3] = biological target: FGFR3 (Homo sapiens (Human), UniProt P22607); experiment: FGFR biochemical assay (LanthaScreen TR-FRET kinase assay), FGFR3
Method: as §1

[4] = read-out: FGFR1 IC50, * incubation at room temperature for 60 minutes before addition of substrate solution, ATP 28 μM, FGFR1 0.01 nM
[5] = read-out: FGFR1 IC50, incubation with enzyme at room temperature for 10 minutes before substrate, ATP 28 μM, FGFR1 0.01 nM
[6] = read-out: FGFR2 IC50, incubation with enzyme at room temperature for 10 minutes before substrate, ATP 22 μM, FGFR2 0.01 nM
[7] = read-out: FGFR3 IC50, incubation with enzyme at room temperature for 10 minutes before substrate, ATP 35 μM, FGFR3 0.1 nM
[8] = read-out: FGFR2 IC50, * incubation at room temperature for 60 minutes before addition of substrate solution, ATP 22 μM, FGFR2 0.01 nM
[9] = read-out: FGFR3 IC50, * incubation at room temperature for 60 minutes before addition of substrate solution, ATP 35 μM, FGFR3 0.1 nM

Sequence of FGFR3 (P22607 23-806): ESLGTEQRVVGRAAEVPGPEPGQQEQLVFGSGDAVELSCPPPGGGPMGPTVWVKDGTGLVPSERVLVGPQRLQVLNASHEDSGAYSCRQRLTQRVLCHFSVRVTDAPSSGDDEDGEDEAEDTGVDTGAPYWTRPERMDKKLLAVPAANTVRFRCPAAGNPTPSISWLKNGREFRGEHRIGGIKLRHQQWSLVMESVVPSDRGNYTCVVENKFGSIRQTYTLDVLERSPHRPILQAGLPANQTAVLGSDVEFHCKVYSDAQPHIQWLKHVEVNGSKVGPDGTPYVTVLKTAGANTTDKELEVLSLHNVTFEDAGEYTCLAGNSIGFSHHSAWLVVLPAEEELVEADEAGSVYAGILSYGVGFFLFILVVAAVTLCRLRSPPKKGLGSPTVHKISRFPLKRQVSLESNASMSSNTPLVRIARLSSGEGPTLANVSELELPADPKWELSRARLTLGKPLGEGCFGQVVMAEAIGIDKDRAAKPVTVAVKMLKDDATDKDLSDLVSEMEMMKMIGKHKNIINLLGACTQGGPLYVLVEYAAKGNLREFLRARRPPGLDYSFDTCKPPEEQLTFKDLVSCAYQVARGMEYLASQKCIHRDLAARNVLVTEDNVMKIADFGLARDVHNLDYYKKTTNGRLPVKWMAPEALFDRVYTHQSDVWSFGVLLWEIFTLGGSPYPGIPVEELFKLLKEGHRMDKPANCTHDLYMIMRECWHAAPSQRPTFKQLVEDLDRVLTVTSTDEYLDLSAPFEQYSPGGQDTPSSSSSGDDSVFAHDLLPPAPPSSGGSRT
Sequence of FGFR1 (P11362 22-822): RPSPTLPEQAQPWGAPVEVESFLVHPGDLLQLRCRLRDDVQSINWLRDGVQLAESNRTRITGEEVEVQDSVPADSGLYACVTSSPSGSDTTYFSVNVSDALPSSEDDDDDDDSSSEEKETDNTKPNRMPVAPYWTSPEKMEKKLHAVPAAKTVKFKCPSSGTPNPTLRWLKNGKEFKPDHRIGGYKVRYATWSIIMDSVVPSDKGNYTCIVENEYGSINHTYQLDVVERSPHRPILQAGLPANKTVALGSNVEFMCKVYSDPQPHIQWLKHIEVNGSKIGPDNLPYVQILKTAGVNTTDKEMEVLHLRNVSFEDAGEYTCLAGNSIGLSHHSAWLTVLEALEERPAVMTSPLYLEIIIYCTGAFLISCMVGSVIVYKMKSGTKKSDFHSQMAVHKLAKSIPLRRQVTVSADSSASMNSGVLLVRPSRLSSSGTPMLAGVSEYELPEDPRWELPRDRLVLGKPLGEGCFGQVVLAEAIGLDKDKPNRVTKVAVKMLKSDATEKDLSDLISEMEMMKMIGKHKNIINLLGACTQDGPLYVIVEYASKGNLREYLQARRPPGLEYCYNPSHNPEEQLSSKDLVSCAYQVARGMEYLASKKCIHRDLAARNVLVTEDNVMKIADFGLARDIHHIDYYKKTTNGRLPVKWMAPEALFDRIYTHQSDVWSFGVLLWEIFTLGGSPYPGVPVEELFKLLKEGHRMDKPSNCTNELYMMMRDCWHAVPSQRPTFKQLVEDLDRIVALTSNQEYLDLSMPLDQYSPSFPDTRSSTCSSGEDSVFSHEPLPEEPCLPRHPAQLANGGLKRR
Sequence of FGFR2 (P21802 22-821): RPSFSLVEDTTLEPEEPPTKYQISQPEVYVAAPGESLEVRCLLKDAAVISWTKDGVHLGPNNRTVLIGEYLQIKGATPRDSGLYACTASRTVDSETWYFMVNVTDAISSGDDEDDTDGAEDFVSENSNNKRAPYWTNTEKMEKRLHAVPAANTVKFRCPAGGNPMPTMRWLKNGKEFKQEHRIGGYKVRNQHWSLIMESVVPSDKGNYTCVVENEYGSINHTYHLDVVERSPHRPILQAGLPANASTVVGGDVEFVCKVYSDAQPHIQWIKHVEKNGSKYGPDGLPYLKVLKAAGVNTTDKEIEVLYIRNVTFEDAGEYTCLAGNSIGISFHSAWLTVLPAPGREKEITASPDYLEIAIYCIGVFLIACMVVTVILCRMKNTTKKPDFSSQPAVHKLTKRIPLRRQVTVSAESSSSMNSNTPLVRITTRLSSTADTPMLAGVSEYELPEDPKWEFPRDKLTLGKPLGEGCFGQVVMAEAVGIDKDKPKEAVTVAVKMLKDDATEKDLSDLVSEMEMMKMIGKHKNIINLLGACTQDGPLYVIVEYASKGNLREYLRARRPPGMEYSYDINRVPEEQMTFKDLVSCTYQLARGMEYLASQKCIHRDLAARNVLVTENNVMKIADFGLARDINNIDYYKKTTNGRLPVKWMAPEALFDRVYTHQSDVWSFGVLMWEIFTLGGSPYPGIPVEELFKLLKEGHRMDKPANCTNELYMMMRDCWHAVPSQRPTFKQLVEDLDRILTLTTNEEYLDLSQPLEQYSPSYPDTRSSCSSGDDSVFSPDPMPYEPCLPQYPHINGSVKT

| SMILES | IC50 [1] | IC50 [2] | IC50 [3] | other results |
| --- | --- | --- | --- | --- |
| C=CC(=O)Nc1cc(C)c(-c2c(-c3ccc(Oc4cccc(C)n4)cc3)c(C(N)=O)c3cnccn23)cn1 [Example 4, 6-(6-acrylamido-4-methylpyridin-3-yl)-7-(4-((6-methylpyridin-2-yl)oxy)phenyl)pyrrolo[1,2-a]pyrazine-8-carboxamide] | 10 to 100 nM | 10 to 100 nM | 10 to 100 nM |  |
| C=C(F)C(=O)Nc1ccc(-c2c(-c3ccc(Oc4nc(C)cc(C)n4)c(F)c3)c(C(N)=O)c3cnc(C)cn23)cc1 [Example 53, 7-(4-((4,6-dimethylpyrimidin-2-yl)oxy)-3-fluorophenyl)-6-(4-(2-fluoroacrylamido)phenyl)-3-methylpyrrolo[1,2-a]pyrazine-8-carboxamide] |  | 10 to 100 nM | 100 to 1000 nM | IC50 [1, 4]: > 1000 nM |
| C=CC(=O)Nc1ccc(-c2c(-c3ccc(Oc4cccc(C)n4)cc3)c(C#N)c3sccn23)cc1 [Example 24, N-(4-(7-cyano-6-(4-((6-methylpyridin-2-yl)oxy)phenyl)pyrrolo[2,1-b]thiazol-5-yl)phenyl) acrylamide] |  |  |  | IC50 [1, 5]: > 1000 nM; IC50 [2, 6]: > 1000 nM; IC50 [3, 7]: > 1000 nM |
| C=C(F)C(=O)Nc1ccc(-c2c(-c3ccc(Oc4nccc(C)n4)c(F)c3)c(C(N)=O)c3cc(-c4cnn(C)c4)ncn23)c(F)c1 [Example 91, 6-(3-fluoro-4-((4-methylpyrimidin-2-yl)oxy)phenyl)-7-(2-fluoro-4-(2-fluoroacrylamido)phenyl)-3-(1-methyl-1H-pyrazol-4-yl)pyrrolo[1,2-c]pyrimidine-5-carboxamide] | 10 to 100 nM |  |  | IC50 [2, 8]: < 10 nM; IC50 [3, 9]: < 10 nM |
| C=C(F)C(=O)Nc1ccc(-c2c(-c3ccc(Oc4nccc(C)n4)c(F)c3)c(C(N)=O)c3cc(C)cnn23)cc1 [Example 87, 6-(3-fluoro-4-((4-methylpyrimidin-2-yl)oxy)phenyl)-7-(4-(2-fluoroacrylamido)phenyl)-3-methylpyrrolo[1,2-b]pyridazine-5-carboxamide] | 10 to 100 nM |  | 10 to 100 nM | IC50 [2, 8]: < 10 nM |
| C=C(F)C(=O)N1CC2(CC2)c2cc(-c3c(-c4ccc(Oc5nccc(C)n5)c(F)c4)c(C(N)=O)c4cnc(C)cn34)c(F)cc21 [Example 102, 6-(6′-fluoro-1′-(2-fluoroacryloyl)spiro[cyclopropane-1,3′-indolin]-5′-yl)-7-(3-fluoro-4-((4-methylpyrimidin-2-yl)oxy)phenyl)-3-methylpyrrolo[1,2-a]pyrazine-8-carboxamide] |  | 10 to 100 nM | 10 to 100 nM | IC50 [1, 4]: < 10 nM |
| C=C(F)C(=O)N1CCc2cc(-c3c(-c4ccc(Oc5nccc(C)n5)c(F)c4)c(C(N)=O)c4ccc(C)nn34)ccc21 [Example 95, 6-(3-fluoro-4-((4-methylpyrimidin-2-yl)oxy)phenyl)-7-(1-(2-fluoroacryloyl)indolin-5-yl)-2-methylpyrrolo[1,2-b]pyridazine-5-carboxamide] |  | 10 to 100 nM | 100 to 1000 nM | IC50 [1, 4]: > 1000 nM |
| C=C(F)C(=O)N1CCCc2cc(-c3c(-c4ccc(Oc5nccc(C)n5)c(F)c4)c(C(N)=O)c4cnc(C)cn34)c(F)cc21 [Example 98, 6-(7-fluoro-1-(2-fluoroacryloyl)-1,2,3,4-tetrahydroquinolin-6-yl)-7-(3-fluoro-4-((4-methylpyrimidin-2-yl)oxy)phenyl)-3-methylpyrrolo[1,2-a]pyrazine-8-carboxamide] |  | 100 to 1000 nM | 100 to 1000 nM | IC50 [1, 4]: > 1000 nM |
| C=C(F)C(=O)Nc1ccc(-c2c(-c3ccc(C(=O)NCC4(F)COC4)cc3)c(C(N)=O)c3cnc(C)cn23)cc1 [Example 63, 6-(4-(2-fluoroacrylamido)phenyl)-7-(4-(((3-fluorooxetan-3-yl)methyl)carbamoyl)phenyl)-3-methylpyrrolo[1,2-a]pyrazine-8-carboxamide] | 10 to 100 nM |  | 10 to 100 nM | IC50 [2, 8]: < 10 nM |
| C=C(F)C(=O)Nc1ccc(-c2c(-c3cccc(C(=O)NC)c3)c(C(N)=O)c3cnc(C)cn23)c(F)c1 [Example 75, 6-(2-fluoro-4-(2-fluoroacrylamido)phenyl)-3-methyl-7-(3-(methylcarbamoyl)phenyl)pyrrolo[1,2-a]pyrazine-8-carboxamide] | 100 to 1000 nM | 100 to 1000 nM | 100 to 1000 nM |  |
| C=CC(=O)Nc1ccc(-c2c(-c3ccc(Oc4ccccn4)cc3)c(C(N)=O)c3cnccn23)cc1 [Example 26, 6-(4-acrylamidophenyl)-7-(4-(pyridin-2-yloxy)phenyl)pyrrolo[1,2-a]pyrazine-8-carboxamide] | 100 to 1000 nM |  | 10 to 100 nM | IC50 [2, 6]: < 10 nM |
| C=C(F)C(=O)N1CCc2c1ccc(-c1c(-c3ccc(Oc4nccc(C)n4)c(F)c3)c(C(N)=O)c3cnc(C)cn13)c2F [Example 99, 6-(4-fluoro-1-(2-fluoroacryloyl)indolin-5-yl)-7-(3-fluoro-4-((4-methylpyrimidin-2-yl)oxy)phenyl)-3-methylpyrrolo[1,2-a]pyrazine-8-carboxamide] | 10 to 100 nM |  |  | IC50 [2, 8]: < 10 nM; IC50 [3, 9]: < 10 nM |
| C=C(F)C(=O)N1CCc2cc(-c3c(-c4ccc(Oc5nccc(C)n5)c(F)c4)c(C(N)=O)c4cnc(C)cn34)ccc21 [Example 72, 7-(3-fluoro-4-((4-methylpyrimidin-2-yl)oxy)phenyl)-6-(1-(2-fluoroacryloyl)indolin-5-yl)-3-methylpyrrolo[1,2-a]pyrazine-8-carboxamide] | 100 to 1000 nM |  | 10 to 100 nM | IC50 [2, 8]: < 10 nM |
| C=C(C)C(=O)Nc1ccc(-c2c(-c3ccc(Oc4nccc(C)n4)c(F)c3)c(C(N)=O)c3cnccn23)cc1 [Example 34, 7-(3-fluoro-4-((4-methylpyrimidin-2-yl)oxy)phenyl)-6-(4-methacrylamidophenyl)pyrrolo[1,2-a]pyrazine-8-carboxamide] |  | 100 to 1000 nM | 100 to 1000 nM | IC50 [1, 5]: > 1000 nM |
| C=C(F)C(=O)Nc1ccc(-c2c(-c3ccc(Oc4nccc(C)n4)c(F)c3)c(C(N)=O)c3cnc(CCO)cn23)c(F)c1 [Example 82, 7-(3-fluoro-4-((4-methylpyrimidin-2-yl)oxy)phenyl)-6-(2-fluoro-4-(2-fluoroacrylamido)phenyl)-3-(2-hydroxyethyl)pyrrolo[1,2-a]pyrazine-8-carboxamide] | 10 to 100 nM |  |  | IC50 [2, 8]: < 10 nM; IC50 [3, 9]: < 10 nM |
| C=CC(=O)Nc1ccc(-c2c(-c3ccc(Oc4nccc(C)n4)c(F)c3)c(C(N)=O)c3cnc(C)cn23)cn1 [Example 36, 6-(6-acrylamidopyridin-3-yl)-7-(3-fluoro-4-((4-methylpyrimidin-2-yl)oxy)phenyl)-3-methylpyrrolo[1,2-a]pyrazine-8-carboxamide] | 10 to 100 nM |  |  | IC50 [2, 6]: < 10 nM; IC50 [3, 7]: < 10 nM |
| C=CC(=O)Nc1ccc(-c2c(-c3ccc(Oc4cccc(C)n4)c(OC)c3)c(C(N)=O)c3cnccn23)cc1 [Example 25, 6-(4-acrylamidophenyl)-7-(3-methoxy-4-((6-methylpyridin-2-yl)oxy)phenyl)pyrrolo[1,2-a]pyrazine-8-carboxamide] | 100 to 1000 nM |  | 10 to 100 nM | IC50 [2, 6]: < 10 nM |
| C=C(F)C(=O)Nc1ccc(-c2c(-c3ccc(Oc4ncc(F)c(C)n4)c(F)c3)c(C(N)=O)c3cnc(C)cn23)cc1 [Example 54, 7-(3-fluoro-4-((5-fluoro-4-methylpyrimidin-2-yl)oxy)phenyl)-6-(4-(2-fluoroacrylamido)phenyl)-3-methylpyrrolo[1,2-a]pyrazine-8-carboxamide] | 100 to 1000 nM | 10 to 100 nM | 10 to 100 nM |  |
| C=CC(=O)Nc1ccc(-c2c(-c3ccc(Oc4cccc(C)n4)cc3)c(C(N)=O)c3ccncn23)cc1 [Example 15, 7-(4-acrylamidophenyl)-6-(4-((6-methylpyridin-2-yl)oxy)phenyl)pyrrolo[1,2-c]pyrimidine-5-carboxamide] | 100 to 1000 nM |  | 10 to 100 nM | IC50 [2, 6]: < 10 nM |
| C=C(F)C(=O)Nc1ccc(-c2c(-c3ccc(Oc4nccc(C)n4)cc3)c(C(N)=O)c3cnc(C(F)(F)F)cn23)cc1 [Example 56, 6-(4-(2-fluoroacrylamido)phenyl)-7-(4-((4-methylpyrimidin-2-yl)oxy)phenyl)-3-(trifluoromethyl)pyrrolo[1,2-a]pyrazine-8-carboxamide] | 100 to 1000 nM | 10 to 100 nM | 100 to 1000 nM |  |
| C=CC(=O)Nc1ccc(-c2c(-c3ccc(C(=O)N4CC5(CCC5)C4)cc3)c(C(N)=O)c3cnccn23)cc1 [Example 30, 7-(4-(2-azaspiro[3.3]heptane-2-carbonyl)phenyl)-6-(4-acrylamidophenyl)pyrrolo[1,2-a]pyrazine-8-carboxamide] | 100 to 1000 nM | 10 to 100 nM | 100 to 1000 nM |  |
| C=C(F)C(=O)Nc1ccc(-c2c(-c3ccc(Oc4nccc(C)n4)c(F)c3)c(C(N)=O)c3cnc(C)cn23)cn1 [Example 51, 7-(3-fluoro-4-((4-methylpyrimidin-2-yl)oxy)phenyl)-6-(6-(2-fluoroacrylamido)pyridin-3-yl)-3-methylpyrrolo[1,2-a]pyrazine-8-carboxamide] | 10 to 100 nM |  | 10 to 100 nM | IC50 [2, 6]: < 10 nM |
| C=CC(=O)Nc1ccc(-c2c(-c3ccc(Oc4nccc(C)n4)cc3)c(C(N)=O)c3cnc(C)cn23)cc1OC [Example 38, 6-(4-acrylamido-3-methoxyphenyl)-3-methyl-7-(4-((4-methylpyrimidin-2-yl)oxy)phenyl)pyrrolo[1,2-a]pyrazine-8-carboxamide] | 100 to 1000 nM | 10 to 100 nM | 10 to 100 nM |  |
